Measurements taken from ChEMBL document CHEMBL4020815 (J Med Chem, 2017).

Experiments:
[1] = Fraction unbound in CD-1 mouse plasma; type: ADME, cell-free
Mus musculus = assay: Toxicity in athymic nude mouse xenografted with human MDA-MB-231met2 cells assessed as body weight loss at 30 to 60 mg/kg, bid administered via oral gavage for 22 days; type: organism-based; details: in vivo, 528 h
[2] = molecular target: T1, C-1-tetrahydrofolate synthase, cytoplasmic (Homo sapiens, UniProt P11586); assay: Inhibition of MTHFD1 (unknown origin) using NADP/5,10-methylene THF as substrate after 30 mins by HPLC method
T1 sequence (P11586 whole entry): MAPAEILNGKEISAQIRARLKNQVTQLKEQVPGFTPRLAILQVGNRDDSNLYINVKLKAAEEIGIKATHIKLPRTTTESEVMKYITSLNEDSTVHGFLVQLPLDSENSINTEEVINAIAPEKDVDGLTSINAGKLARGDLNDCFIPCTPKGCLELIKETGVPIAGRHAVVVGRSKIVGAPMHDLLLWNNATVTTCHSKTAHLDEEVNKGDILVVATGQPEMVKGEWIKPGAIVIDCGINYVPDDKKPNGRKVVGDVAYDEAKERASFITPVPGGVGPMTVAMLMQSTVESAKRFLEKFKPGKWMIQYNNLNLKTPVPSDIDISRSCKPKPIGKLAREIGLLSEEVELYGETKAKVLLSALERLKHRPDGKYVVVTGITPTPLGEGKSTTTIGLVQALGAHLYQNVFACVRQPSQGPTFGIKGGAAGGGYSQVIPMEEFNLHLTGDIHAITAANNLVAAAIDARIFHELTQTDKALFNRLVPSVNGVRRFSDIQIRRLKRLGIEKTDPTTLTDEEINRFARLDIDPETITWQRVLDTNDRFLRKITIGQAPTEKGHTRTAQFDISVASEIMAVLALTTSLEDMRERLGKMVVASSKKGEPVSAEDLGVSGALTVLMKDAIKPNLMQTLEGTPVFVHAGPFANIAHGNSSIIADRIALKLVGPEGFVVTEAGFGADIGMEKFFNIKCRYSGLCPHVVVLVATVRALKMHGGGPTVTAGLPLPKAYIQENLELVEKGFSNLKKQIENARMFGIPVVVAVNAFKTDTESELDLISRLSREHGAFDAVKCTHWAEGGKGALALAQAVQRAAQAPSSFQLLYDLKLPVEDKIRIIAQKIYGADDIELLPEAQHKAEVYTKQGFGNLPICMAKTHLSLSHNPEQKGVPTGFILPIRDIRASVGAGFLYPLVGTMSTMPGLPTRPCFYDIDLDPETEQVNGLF

[3] = molecular target: T2, Bifunctional methylenetetrahydrofolate dehydrogenase/cyclohydrolase 2, mitochondrial (Homo sapiens, UniProt Q9H903); assay: Inhibition of MTHFD2L (unknown origin) using NAD/5,10-methylene THF as substrate after 2 hrs by HPLC method
T2 sequence (Q9H903 whole entry): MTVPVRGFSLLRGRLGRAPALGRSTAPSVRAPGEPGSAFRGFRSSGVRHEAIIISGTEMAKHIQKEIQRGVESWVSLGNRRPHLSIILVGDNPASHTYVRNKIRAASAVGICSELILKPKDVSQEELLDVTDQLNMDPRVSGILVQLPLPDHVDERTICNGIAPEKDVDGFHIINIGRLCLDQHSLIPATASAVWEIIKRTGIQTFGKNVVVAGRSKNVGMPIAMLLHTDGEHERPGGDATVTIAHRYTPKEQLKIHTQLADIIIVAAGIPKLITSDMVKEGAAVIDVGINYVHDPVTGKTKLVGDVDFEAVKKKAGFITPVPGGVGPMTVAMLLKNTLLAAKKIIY

MDA-MB-231met2 = assay: Antitumor activity against human MDA-MB-231met2 cells xenografted in athymic nude mouse assessed as tumor growth inhibition administered as bid via oral gavage for 22 days; type: functional, cell-based

O=c1[nH]ccc2cc(F)c(NS(=O)(=O)c3ccc(N4CC[C@@H](O)C4)s3)cc12
fraction unbound [1]: 0.06 | Activity (Mus musculus): Non-Toxic | IC50 [2]: > 100 µM | IC50 [3]: > 100 µM | TGI (MDA-MB-231met2): Dose-dependent effect
